Read-outs that look alike come from different tables or passages of the source.
Legend:
HIV-IIIb = assay: Test A: Antiviral Assay in MT4 Cells; type: cell-based, HIV-1; conditions: for inhibition at 0.2 µM: 0.2 μM drug concentration; for inhibition at 2 µM: 2 μM drug concentration, read-out: Response at 2 μM (percent inhibition of virus-induced cell killing)
Outline: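 MT-4 cells were preinfected with HIV-IIIb […]. Cell viability, as protection from viral cytopathic effect, was read by CellTiter-Glo chemiluminescence.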

[1] = Test B: Cytotoxicity Assay; type: cell-based; conditions: human, uninfected MT-4 cells, CellTiter-Glo
Description: Test B: Cytotoxicity Assay Compound cytotoxicity and the corresponding CC50 values was determined using the same protocol as described in the antiviral assay (Test A) except that uninfected cells were used.

[2] = Human immunodeficiency virus 1, MT4, 120 h, MT-4 cells infected with HIV-IIIb, 5 days, values normalized to 100%, average over time, read-out: % inhibition at 0.2 μM (percent inhibition of virus-induced cell killing)
[3] = Human immunodeficiency virus 1, IIIB, MT4, comparison with previously published compounds, read-out: Response at 0.2 μM (percent inhibition of virus-induced cell killing)
[4] = Human immunodeficiency virus 1, IIIB, MT4, comparison with previously published compounds

Row | SMILES | inhibition at 0.2 µM (HIV-IIIb; [2]) | CC50 at 5 days [1] | inhibition at 0.2 µM (HIV-IIIb; [3]) | inhibition at 2 µM (HIV-IIIb; [4])
1 | CN1CC(O)(C#Cc2ccc(-c3cccc4c(NS(C)(=O)=O)nn(C)c34)c([C@H](Cc3cc(F)cc(F)c3)NC(=O)Cn3nc(C(F)(F)F)c4c3C(F)(F)[C@@H]3C[C@H]43)n2)C1 [Compound 23C, 2-((3bS,4aR)-5,5-difluoro-3-(trifluoromethyl)-3b,4,4a,5-tetrahydro-1H-cyclopropa[3,4]cyclopenta[1,2-c]pyrazol-1-yl)-N—((S)-2-(3,5-difluorophenyl)-1-(6-((3-hydroxy-1-methylazetidin-3-yl)ethynyl)-3-(1-methyl-3-(methylsulfonamido)-1H-indazol-7-yl)pyridin-2-yl)ethyl)acetamide] | 100% | 9.19 µM | – | –
2 | NC(=O)c1cc(-c2ccc(C#CC3(O)CCCCC3)nc2[C@H](Cc2cc(F)cc(F)c2)NC(=O)Cn2nc(C(F)(F)F)c3c2C(F)(F)[C@@H]2C[C@H]32)ccc1F [Compound 16, 5-(2-((S)-1-(2-((3bS,4aR)-5,5-difluoro-3-(trifluoromethyl)-3b,4,4a,5-tetrahydro-1H-cyclopropa[3,4]cyclopenta[1,2-c]pyrazol-1-yl)acetamido)-2-(3,5-difluorophenyl)ethyl)-6-((1-hydroxycyclohexyl)ethynyl)pyridin-3-yl)-2-fluorobenzamide] | 76% | 3 µM | 76% | 77%
3 | Cc1cncc(C#Cc2ncc(-c3ccc(F)c(C(N)=O)c3)c([C@H](Cc3cc(F)cc(F)c3)NC(=O)Cn3nc(C(F)(F)F)c4c3C(F)(F)[C@@H]3C[C@H]43)n2)c1 [Compound 19, 5-(4-((S)-1-(2-((3bS,4aR)-5,5-difluoro-3-(trifluoromethyl)-3b,4,4a,5-tetrahydro-1H-cyclopropa[3,4]cyclopenta[1,2-c]pyrazol-1-yl)acetamido)-2-(3,5-difluorophenyl)ethyl)-2-((5-methylpyridin-3-yl)ethynyl)pyrimidin-5-yl)-2-fluorobenzamide] | 83% | 4.63 µM | 83% | 88%
4 | Cn1nc(NS(C)(=O)=O)c2cccc(-c3ccc(C#CC4(O)CC(F)(F)C4)nc3[C@H](Cc3cc(F)cc(F)c3)NC(=O)Cn3nc(C(F)(F)F)c4c3C(F)(F)[C@@H]3C[C@H]43)c21 [Compound 105D] | 88% | 6.46 µM | – | –
5 | Cn1nc(NS(C)(=O)=O)c2c(Cl)ccc(-c3ccc(C#CC4CCCN4)nc3[C@H](Cc3cc(F)cc(F)c3)NC(=O)Cn3nc(C(F)(F)F)c4c3C(F)(F)[C@@H]3C[C@H]43)c21 (stereo partly drawn) [Compound 43H, N-((1S)-1-(3-(4-chloro-1-methyl-3-(methylsulfonamido)-1H-indazol-7-yl)-6-(pyrrolidin-2-ylethynyl)pyridin-2-yl)-2-(3,5-difluorophenyl)ethyl)-2-((3bS,4aR)-5,5-difluoro-3-(trifluoromethyl)-3b,4,4a,5-tetrahydro-1H-cyclopropa[3,4]cyclopenta[1,2-c]pyrazol-1-yl)acetamide] | 99% | 4.34 µM | – | –
6 | Cn1nc(NS(C)(=O)=O)c2c(Cl)ccc(-c3ccc(C#CC(C)(O)c4ccco4)nc3[C@H](Cc3cc(F)cc(F)c3)NC(=O)Cn3nc(C(F)(F)F)c4c3C(F)(F)[C@@H]3C[C@H]43)c21 (stereo partly drawn) [Compound 54, N-((1S)-1-(3-(4-chloro-1-methyl-3-(methylsulfonamido)-1H-indazol-7-yl)-6-(3-(furan-2-yl)-3-hydroxybut-1-yn-1-yl)pyridin-2-yl)-2-(3,5-difluorophenyl)ethyl)-2-((3bS,4aR)-5,5-difluoro-3-(trifluoromethyl)-3b,4,4a,5-tetrahydro-1H-cyclopropa[3,4]cyclopenta[1,2-c]pyrazol-1-yl)acetamide] | 100% | 11.6 µM | – | –
7 | CC(=O)N1CCCC1C#Cc1ccc(-c2ccc(Cl)c3c(NS(C)(=O)=O)nn(C)c23)c([C@H](Cc2cc(F)cc(F)c2)NC(=O)Cn2nc(C(F)(F)F)c3c2C(F)(F)[C@@H]2C[C@H]32)n1 (stereo partly drawn) [Compound 55, N-((1S)-1-(6-((1-acetylpyrrolidin-2-yl)ethynyl)-3-(4-chloro-1-methyl-3-(methylsulfonamido)-1H-indazol-7-yl)pyridin-2-yl)-2-(3,5-difluorophenyl)ethyl)-2-((3bS,4aR)-5,5-difluoro-3-(trifluoromethyl)-3b,4,4a,5-tetrahydro-1H-cyclopropa[3,4]cyclopenta[1,2-c]pyrazol-1-yl)acetamide] | 88% | 9.94 µM | – | –
8 | CN1CCC(O)(C#Cc2ccc(-c3cccc4c(NS(C)(=O)=O)nn(C)c34)c([C@H](Cc3cc(F)cc(F)c3)NC(=O)Cn3nc(C(F)(F)F)c4c3C(F)(F)[C@@H]3C[C@H]43)n2)CC1 [Compound 31, 2-((3bS,4aR)-5,5-difluoro-3-(trifluoromethyl)-3b,4,4a,5-tetrahydro-1H-cyclopropa[3,4]cyclopenta[1,2-c]pyrazol-1-yl)-N—((S)-2-(3,5-difluorophenyl)-1-(6-((4-hydroxy-1-methylpiperidin-4-yl)ethynyl)-3-(1-methyl-3-(methylsulfonamido)-1H-indazol-7-yl)pyridin-2-yl)ethyl)acetamide] | 93% | 20.2 µM | – | –
9 | O=C(Cn1nc(C(F)F)c2c1C(F)(F)CCC2(F)F)N[C@@H](Cc1cc(F)cc(F)c1)c1nc(C#Cc2ccc3[nH]c(=O)ccc3c2)ccc1-c1cnc2[nH]ccc2c1 [Compound 5, (S)-2-(3-(difluoromethyl)-4,4,7,7-tetrafluoro-4,5,6,7-tetrahydro-1H-indazol-1-yl)-N-(2-(3,5-difluorophenyl)-1-(6-((2-oxo-1,2-dihydroquinolin-6-yl)ethynyl)-3-(1H-pyrrolo[2,3-b]pyridin-5-yl)pyridin-2-yl)ethyl)acetamide] | 5% | > 53.2 µM | – | –
10 | Cn1nc(NS(C)(=O)=O)c2c(Cl)ccc(-c3ccc(C#CC4COCCN4)nc3[C@H](Cc3cc(F)cc(F)c3)NC(=O)Cn3nc(C(F)(F)F)c4c3C(F)(F)[C@@H]3C[C@H]43)c21 (stereo partly drawn) [Compound 49, N-((1S)-1-(3-(4-chloro-1-methyl-3-(methylsulfonamido)-1H-indazol-7-yl)-6-(morpholin-3-ylethynyl)pyridin-2-yl)-2-(3,5-difluorophenyl)ethyl)-2-((3bS,4aR)-5,5-difluoro-3-(trifluoromethyl)-3b,4,4a,5-tetrahydro-1 I-cyclopropa[3,4]cyclopenta[1,2-c]pyrazol-1-yl)acetamide] | 92% | 20.6 µM | – | –
11 | O=C(Cn1nc(C(F)F)c2c1C(F)(F)CCC2(F)F)N[C@@H](Cc1cc(F)cc(F)c1)c1nc(C#Cc2cnc3[nH]ccc3c2)ccc1-c1cnc2[nH]ccc2c1 [Compound 4C, (S)—N-(1-(6-((1H-pyrrolo[2,3-b]pyridin-5-yl)ethynyl)-3-(1H-pyrrolo[2,3-b]pyridin-5-yl)pyridin-2-yl)-2-(3,5-difluorophenyl)ethyl)-2-(3-(difluoromethyl)-4,4,7,7-tetrafluoro-4,5,6,7-tetrahydro-1H-indazol-1-yl)acetamide] | 0% | 1.27 µM | – | –
12 | Cn1nc(NS(C)(=O)=O)c2c(Cl)ccc(-c3ccc(C#CC4CCNC4)nc3[C@H](Cc3cc(F)cc(F)c3)NC(=O)Cn3nc(C(F)(F)F)c4c3C(F)(F)[C@@H]3C[C@H]43)c21 (stereo partly drawn) [Compound 44, N-((1S)-1-(3-(4-chloro-1-methyl-3-(methylsulfonamido)-1H-indazol-7-yl)-6-(pyrrolidin-3-ylethynyl)pyridin-2-yl)-2-(3,5-difluorophenyl)ethyl)-2-((3bS,4aR)-5,5-difluoro-3-(trifluoromethyl)-3b,4,4a,5-tetrahydro-1H-cyclopropa[3,4]cyclopenta[1,2-c]pyrazol-1-yl)acetamide] | 100% | 5.64 µM | – | –
13 | Cc1cc(C#Cc2ncc(-c3ccc(F)c(C(N)=O)c3)c([C@H](Cc3cc(F)cc(F)c3)NC(=O)Cn3nc(C(F)(F)F)c4c3C(F)(F)[C@@H]3C[C@H]43)n2)ccn1 [Compound 18C, 5-(4-((S)-1-(2-((3bS,4aR)-5,5-difluoro-3-(trifluoromethyl)-3b,4,4a,5-tetrahydro-1H-cyclopropa[3,4]cyclopenta[1,2-c]pyrazol-1-yl)acetamido)-2-(3,5-difluorophenyl)ethyl)-2-((2-methylpyridin-4-yl)ethynyl)pyrimidin-5-yl)-2-fluorobenzamide] | 90% | 2.31 µM | 90% | 94%
14 | Cc1nccn1C(C)(C)C#Cc1ccc(-c2ccc(Cl)c3c(NS(C)(=O)=O)nn(C)c23)c([C@H](Cc2cc(F)cc(F)c2)NC(=O)Cn2nc(C(F)(F)F)c3c2C(F)(F)[C@@H]2C[C@H]32)n1 [Compound 90, N—((S)-1-(3-(4-chloro-1-methyl-3-(methylsulfonamido)-1H-indazol-7-yl)-6-(3-methyl-3-(2-methyl-1H-imidazol-1-yl)but-1-yn-1-yl)pyridin-2-yl)-2-(3,5-difluorophenyl)ethyl)-2-((3bS,4aR)-5,5-difluoro-3-(trifluoromethyl)-3b,4,4a,5-tetrahydro-1H-cyclopropa[3,4]cyclopenta[1,2-c]pyrazol-1-yl)acetamide] | 98% | 3.04 µM | – | –
